In US8758822B2, “Method for manufacturing uniform size polymeric nanoparticles containing poorly soluble drugs” (Korea Research Institute of Bioscience and Biotechnology, priority 2008, dated 2014):

Experiments:
[1] = system: ICR rats; assay: Acute toxicity test; type: in vivo; conditions: for Fatality rate / No. of dead rats: after 1 week
Excerpt: Acute toxicity was investigated upon administering the PLGA-BDD nanoparticles of the present invention prepared via Example 2.

[2] = system: carbon tetrachloride-induced liver damage; assay: Treatment effects on carbon tetrachloride-induced liver damage; type: in vivo, Sprague Dawley rats; conditions: blood serum after 4 weeks; for Relative concentration of ALT against the control group: 25 mg/kg oral; for ALT* (average ALT concentration ± deviation): 25 mg/kg oral once a day, 6 times a week, CCl4 0.75 ml/kg i.p. 2 times a week
Protocol: 6-week old 20 male Sprague Dawley rats (Orient Bio, Korea) were weighed and distributed to 4 groups 5 to each group to be equal in average weight and degree of dispersion. Under the condition of 23±2′C of temperature and 55±5% of relative humidity in an animal facility, 0.75 ml/kg of 50% solution (v/v) (Sigma-Aldrich, USA) of liver toxic carbon tetrachloride (CCl4) mixed with corn oil was injected each time into the peritoneal cavity 2 times a week (Mondays & Fridays) for 4 weeks.
(§1) 1. For Group 1 (control group), 0.75 ml/kg of carbon tetrachloride was injected each time into the peritoneal cavity 2 times a week (Mondays & Fridays) for 4 weeks, and no additional compounds was administered any more.
(§2) 2. For Group 2, in addition to the 0.75 ml/kg of carbon tetrachloride injection each time into the peritoneal cavity 2 times a week (Mondays & Fridays) for 4 weeks, BDD equivalent to 25 mg per 1 kg of body weight of each rat, which was suspended in 1% (w/v) of CMC (carboxylmethyl cellulose sodium salt, Sigma-Aldrich, USA) solution were orally administered each time once a day, 6 times a week for 4 weeks.
as §2, with “3.” for “2.”, “3,” for “2,”, “BDD-containing polymeric nanoparticles of the present invention prepared via Example 2” for “BDD”, “were” for “was”, “(Carboxylmethyl” for “(carboxylmethyl”
4. For Group 4 (no treatment group), no carbon tetrachloride and compounds were administered.
In detail, after 4 weeks, each animal was anesthetized by injecting 4% of 4 ml-chloral hydrate (BDH Laboratory Supplies, U.K.) Into the peritoneal cavity, and blood was taken out from the heart and left at a room temperature for an hour. After then, blood serum was obtained by spinning down at 16000 rpm for 20 minutes, and ALT and AST concentrations were measured by an automatic blood biochemistry analyzer (HITACHI 7080, HITACHI, Japan) using an ALT and AST test reagents (TA-Test Wako; WAKO Pure Chemical, Japan).

[3] = taken as a form of tablet; cited from earlier work
[4] = system: carbon tetrachloride-induced liver damage; conditions: administered 2 weeks, CCl4 continued to 3 and 4 weeks; FIGS. 6 and 7
Protocol: as §1

**Q.** For `COC(=O)c1cc(OC)c2c(c1-c1c(C(=O)OC)cc(OC)c3c1OCO3)OCO2` [BDD, biphenyl-dimethyl-dicarboxylate], which Fatality rate ([1]; 0.005 g per kg oral) is on record?
**A.** The Fatality rate was 0%.

**Q.** And the “No. of dead rats” value ([1]; 0.005 g per kg oral)?
**A.** The value was 0.

**Q.** And the Fatality rate ([1]; 0.1 g per kg oral)?
**A.** The Fatality rate was 0%.

**Q.** What about the “No. of dead rats” value ([1]; 0.1 g per kg oral) of the same compound?
**A.** The value was 0.

**Q.** What about the Fatality rate ([1]; 0.25 g per kg oral) of the same compound?
**A.** Its Fatality rate is 0%.

**Q.** And the “No. of dead rats” value ([1]; 0.25 g per kg oral)?
**A.** Its value is 0.

**Q.** And the Fatality rate ([1]; 0.5 g per kg oral)?
**A.** The Fatality rate was 0%.

**Q.** What about the “No. of dead rats” value ([1]; 0.5 g per kg oral) of the same compound?
**A.** Its value is 0.

**Q.** And the Fatality rate ([1]; 1 g per kg oral)?
**A.** Its Fatality rate is 0%.

**Q.** And the “No. of dead rats” value ([1]; 1 g per kg oral)?
**A.** Its value is 0.

**Q.** And the LD50 ([1]; oral)?
**A.** Its LD50 is greater than 2000 mg/kg.

**Q.** What about the “Relative concentration of ALT against the control group” value ([2]; Table 2) of the same compound?
**A.** The value was 42%.

**Q.** And the “ALT* (average ALT concentration ± deviation)” value ([2]; Table 2)?
**A.** The value was 229.6 ± 99.7 SF IU/l.

**Q.** What about the “Relative concentration of ALT against the control group” value ([2]; Table 3) of the same compound?
**A.** Its value is 52.9%.

**Q.** And the “ALT* (average ALT concentration ± deviation)” value ([2]; Table 3)?
**A.** Its value is 479.7 ± 144.8 SF IU/l.

**Q.** And the bioavailability [3]?
**A.** The bioavailability was 20-30%.

**Q.** And the “inhibiting effect on increase of carbon tetrachloride-induced ALT and AST concentration over time” value [4]?
**A.** Its value is “rebounded after 4 weeks”.
